Assay results reported in US9827219B2, “Compositions and methods for lowering levels of high-sensitivity C-reactive protein (HS-CRP) in a subject” (priority 2012, dated 2017).

Test system: cognitive performance in subjects with AAMI
Assay: CDR computerized cognitive test battery, 6-week pilot study in Age-Associated Memory Impairment (Example 1)
Type: in vivo, human
Settings: for Quality of Episodic Secondary Memory, LS mean difference vs placebo: overall
Method: A single-center, 6-week, double-blind, randomizes, parallel-group, placebo-controlled, dose-ranging pilot study was performed to evaluate the efficacy, tolerability, and safety of >96% ethyl-EPA in subjects with subjective and objective memory impairment according to generally accepted criteria for Age-Associated Memory Impairment (“AAMI”). The primary objective of the study was to determine the effect of >96% ethyl-EPA 1 g, 2 g, and 4 g daily, compared to placebo, on cognitive performance in subjects with AAMI.
The population for this study was men and women between ages 50 and 70 with self-reported complaints of memory loss, subjective and objective cognitive impairment with a score of at least one standard deviation below that of the mean for age-matched elderly population as determined by the total score of between 13 and 20 from the Paired Associated Learning (“PAL”) subset of the Wechsler Memory Scale, evidence of adequate intellectual function as determined by a scaled score of at least 9 (raw score of at least 32) on the Vocabulary subtest of the Wechsler Adult Intelligence Scale and absence of dementia as determined by a score of 24 or higher on the Mini-Mental State Examination (“MMSE”).
Ninety-four subjects were randomized into one of six groups: 1 g E-EPA daily (n=23), 2 g E-EPA daily (n=24), 4 g E-EPA daily (n=24), 1 g placebo daily (n=7), 2 g placebo daily (n=8), and 4 g placebo daily (n=8). E-EPA was provided as 500 mg soft gel capsules containing >96% E-EPA and 0.2% dl-α-tocopherol as an antioxidant. Placebo capsules contained 467 mg of liquid paraffin and 0.2% dl-α-tocopherol. Ninety-one subjects completed the study. Two subjects in the 2 g E-EPA group and one subject in the 2 g placebo group discontinued the study.
The study consisted of a screening visit, a training visit, and four study visits. At the screening visit, subjects' eligibility was determined through cognitive tests (verbal paired associated learning [PAL] subscale, vocabulary subtest, Memory Assessment Clinics Questionnaire [MAC-Q], mini mental state evaluation [MMSE] and MINI [mini international neuropsychiatric interview; sections 1 and 2 of Diagnostic and Statistical Manual of Mental Disorders, 4th Edition (DSM-IV) plus dysthymia]), haematology, clinical chemistry and 12-lead electrocardiogram (ECG). At the training visit, subjects were shown how to use the CDR computerized system. Subjects took study drug for 6 weeks and on Days 0, 14, 28 and 42, subjects underwent the CDR cognitive test battery.
A selection of tasks from the CDR computerized cognitive assessment system were administered at Visit 2 (training visit), Visit 3 (baseline), Visit 4 (Day 14), Visit 5 (Day 28) and Visit 6 (Day 42). Parallel forms of the tests were presented at each testing session. All tasks were computer-controlled, the information presented on high resolution monitors, and the responses recorded via a response model containing two buttons: one marked ‘no’ and the other ‘yes’. Five CDR composite scores were used as the primary/secondary outcome variables. The task titles were: • Word Presentation • Immediate Word Recall • Picture Presentation • Simple Reaction Time • Digit Vigilance • Choice Reaction Time • Spatial Working Memory • Numeric Working Memory • Delayed Word Recall • Word Recognition • Picture Recognition • Bond-Lader Visual Analogue Scales of Mood and Alertness • Screen, Using the Computer Mouse
To ensure consistency of approach, full training on the cognitive tests and CDR test battery was provided to study site staff and study subjects. The results of each variable were automatically recorded using the machine interface developed by CDR.
Summary statistics were provided for the ITT and Study Per Protocol Populations separately for all composite scores, major and supportive variables. Summary statistics were performed for both the unadjusted and difference from baseline data (i.e. the difference from the time matched predose assessments on Day 0). […]

[1] = ITT, ANCOVA, 1, 2, 4 g daily vs placebo
[2] = post-hoc vs corresponding placebo
[3] = post-hoc vs corresponding placebo, 1 g, Days 14 and 28

SMILES: CC/C=C\C/C=C\C/C=C\C/C=C\C/C=C\CCCC(=O)OCC [AMR101, all-cis eicosa-5,8,11,14,17-pentaenoic acid ethyl ester]
- Self-Rated Contentment, LS mean difference to placebo (ITT): no statistically significant effects
- Immediate Word Recall Accuracy, LS mean difference vs placebo (ITT, 1 g, AM 1, p=0.040): statistically significant decreases
- Immediate Word Recall Accuracy, LS mean difference vs placebo (ITT, 1 g, Day 14, p=0.028): statistically significant decreases
- Picture Recognition Speed, LS mean difference vs placebo (ITT, 1 g, Day 14 at AM 2, p=0.084): trends for benefits versus placebo
- Immediate Word Recall Accuracy, LS mean difference vs placebo (ITT, 1 g, Day 14 at PM 2, p=0.020): statistically significant decreases
- Word Recognition Sensitivity Index, LS mean difference vs placebo (ITT, 1 g, Day 28, p=0.024): statistically significant decreases
- Picture Recognition Speed, LS mean difference vs placebo (ITT, 1 g, Day 28 at AM 1, p=0.085): trends for benefits versus placebo
- Picture Recognition Sensitivity Index, LS mean difference vs placebo (ITT, 1 g, Day 28 at AM 2, p=0.017): statistically significant decrease
- Picture Recognition Sensitivity Index, LS mean difference vs placebo (ITT, 1 g, Day 28 at PM 2, p=0.040): statistically significant decrease
- Quality of Episodic Secondary Memory, LS mean difference vs placebo (ITT, 1 g, p=0.040): statistically significant decreases versus placebo
- Immediate Word Recall Accuracy, LS mean difference vs placebo (ITT, 2 g, AM 1, p=0.028): statistically significant decreases
- Immediate Word Recall Accuracy, LS mean difference vs placebo (ITT, 2 g, Day 28, p=0.017): statistically significant decreases
- Self-Rated Alertness, LS mean difference vs placebo (ITT, 2 g, Day 28, p=0.047): statistically significant decrease in ratings
- Immediate Word Recall Accuracy, LS mean difference vs placebo (ITT, 2 g, Day 28 at AM 1, p=0.006): statistically significant decreases
- Self-Rated Alertness, LS mean difference vs placebo (ITT, 2 g, Day 28 at AM 2, p=0.041): statistically significant decrease in ratings
- Quality of Episodic Secondary Memory, LS mean difference vs placebo (ITT, 2 g, p=0.035): statistically significant decreases versus placebo
- Spatial Working Memory Speed, LS mean difference vs placebo (ITT, 4 g, Day 14 at PM 1, p=0.048): statistically significant benefit versus placebo
- Word Recognition Sensitivity Index, LS mean difference vs placebo (ITT, 4 g, Day 28 at PM 2, p=0.030): statistically significant decrease
- Word Recognition Sensitivity Index, LS mean difference vs placebo (ITT, 4 g, Day 42, p=0.038): statistically significant decreases
- Spatial Working Memory Speed, LS mean difference vs placebo (ITT, 4 g, Day 42 at AM 1, p=0.061): trend for a benefit
- Word Recognition Sensitivity Index, LS mean difference vs placebo (ITT, 4 g, PM 2, p=0.045): statistically significant decrease
- Continuity of Attention (ITT, ANCOVA): no statistically significant effect of treatment
- Delayed Word Recall Accuracy (ITT, ANCOVA): no statistically significant effects of treatment
- Digit Vigilance Targets Detected (ITT, ANCOVA): no statistically significant effect of treatment
- Immediate Word Recall Accuracy (ITT, ANCOVA): no statistically significant effects of treatment
- Numeric Working Memory Speed (ITT, ANCOVA): no statistically significant effects of treatment
- Picture Recognition Sensitivity Index (ITT, ANCOVA): no statistically significant effects of treatment
- Picture Recognition Speed (ITT, ANCOVA): no statistically significant effects of treatment
- Quality of Episodic Secondary Memory (ITT, ANCOVA): no statistically significant effect of treatment
- Self-Rated Alertness (ITT, ANCOVA): no statistically significant effect of treatment
- Self-Rated Calmness (ITT, ANCOVA): no statistically significant effect of treatment
- Spatial Working Memory Speed (ITT, ANCOVA): no statistically significant effects of treatment
- Speed of Memory (ITT, ANCOVA): no statistically significant effects of treatment
- Word Recognition Sensitivity Index (ITT, ANCOVA): no statistically significant effects of treatment
- Word Recognition Speed (ITT, ANCOVA): no statistically significant effects of treatment
- Digit Vigilance Speed [1]: no statistically significant effects of treatment
- Power of Attention [1]: no statistically significant effect of treatment
- Simple Reaction Time [1]: no statistically significant effects of treatment
- Self-Rated Contentment (ITT, ANCOVA, p<0.001): statistically significant treatment by day interaction
- Choice Reaction Time (ITT, ANCOVA, p=0.011): statistically significant treatment by day interaction
- Spatial Working Memory Sensitivity Index (ITT, ANCOVA, p=0.015): statistically significant treatment by day interaction
- Quality of Working Memory (ITT, ANCOVA, p=0.019): statistically significant treatment by day interaction
- Numeric Working Memory Sensitivity Index (ITT, ANCOVA, p=0.089): statistical trend for a treatment by day interaction
- Power of Attention, LS mean difference active vs placebo (ITT, any time-point): no LS mean difference between active treatment and placebo
- Continuity of Attention (Study Per Protocol, ANCOVA): no statistically significant effect of treatment
- Digit Vigilance Targets Detected (Study Per Protocol, ANCOVA, p=0.040): statistically significant treatment by time-point interaction
- Self-Rated Contentment, LS mean difference to placebo (Study Per-Protocol): no statistically significant effects
- Immediate Word Recall Accuracy, LS mean difference to placebo (Study Per-Protocol, 1 g, AM 1, p=0.038): statistically significant decreases
- Immediate Word Recall Accuracy, LS mean difference to placebo (Study Per-Protocol, 1 g, AM 2, p=0.048): statistically significant decreases
- Immediate Word Recall Accuracy, LS mean difference to placebo (Study Per-Protocol, 1 g, Day 14, p=0.024): statistically significant decreases
- Immediate Word Recall Accuracy, LS mean difference to placebo (Study Per-Protocol, 1 g, Day 14 at PM 2, p=0.019): statistically significant decreases
- Word Recognition Sensitivity Index, LS mean difference to placebo (Study Per-Protocol, 1 g, Day 28, p=0.027): statistically significant decreases
- Picture Recognition Sensitivity Index, LS mean difference vs placebo (Study Per-Protocol, 1 g, Day 28 at AM 2, p=0.020): statistically significant decreases versus placebo
- Picture Recognition Sensitivity Index, LS mean difference vs placebo (Study Per-Protocol, 1 g, Day 28 at PM 2, p=0.026): statistically significant decreases versus placebo
- Quality of Episodic Secondary Memory, LS mean difference vs placebo (Study Per-Protocol, 1 g, p=0.043): statistically significant decreases versus placebo
- Immediate Word Recall Accuracy, LS mean difference to placebo (Study Per-Protocol, 2 g, AM 1, p=0.029): statistically significant decreases
- Immediate Word Recall Accuracy, LS mean difference to placebo (Study Per-Protocol, 2 g, Day 28, p=0.017): statistically significant decreases
- Self-Rated Alertness, LS mean difference vs placebo (Study Per-Protocol, 2 g, Day 28, p=0.035): statistically significant decrease in ratings
- Immediate Word Recall Accuracy, LS mean difference to placebo (Study Per-Protocol, 2 g, Day 28 at AM 1, p=0.006): statistically significant decreases
- Self-Rated Alertness, LS mean difference vs placebo (Study Per-Protocol, 2 g, Day 28 at AM 2, p=0.033): statistically significant decrease in ratings
- Quality of Episodic Secondary Memory, LS mean difference vs placebo (Study Per-Protocol, 2 g, p=0.036): statistically significant decreases versus placebo
- Word Recognition Sensitivity Index, LS mean difference to placebo (Study Per-Protocol, 4 g, Day 42, p=0.038): statistically significant decreases
- Self-Rated Calmness, LS mean difference vs placebo (Study Per-Protocol, 4 g, Day 42 at PM 1, p=0.071): statistical trend for an increase in ratings versus placebo
- Delayed Word Recall Accuracy (Study Per-Protocol, ANCOVA): no statistically significant effects of treatment
- Digit Vigilance Speed (Study Per-Protocol, ANCOVA): no statistically significant effects of treatment
- Immediate Word Recall Accuracy (Study Per-Protocol, ANCOVA): no statistically significant effects of treatment
- Numeric Working Memory Speed (Study Per-Protocol, ANCOVA): no statistical significant effects of treatment
- Picture Recognition Sensitivity Index (Study Per-Protocol, ANCOVA): no statistically significant effects of treatment
- Picture Recognition Speed (Study Per-Protocol, ANCOVA): no statistical significant effects of treatment
- Power of Attention (Study Per-Protocol, ANCOVA): no statistically significant effect of treatment
- Quality of Episodic Secondary Memory (Study Per-Protocol, ANCOVA): no statistically significant effects of treatment
- Self-Rated Alertness (Study Per-Protocol, ANCOVA): no statistically significant effect of treatment
- Self-Rated Calmness (Study Per-Protocol, ANCOVA): no statistically significant effect of treatment
- Simple Reaction Time (Study Per-Protocol, ANCOVA): no statistically significant effects of treatment
- Spatial Working Memory Speed (Study Per-Protocol, ANCOVA): no statistical significant effects of treatment
- Speed of Memory (Study Per-Protocol, ANCOVA): no statistical significant effects of treatment
- Word Recognition Sensitivity Index (Study Per-Protocol, ANCOVA): no statistically significant effects of treatment
- Word Recognition Speed (Study Per-Protocol, ANCOVA): no statistical significant effects of treatment
- Self-Rated Contentment (Study Per-Protocol, ANCOVA, p<0.001): statistically significant treatment by day interaction
- Choice Reaction Time (Study Per-Protocol, ANCOVA, p=0.013): statistically significant treatment by day interaction
- Spatial Working Memory Sensitivity Index (Study Per-Protocol, ANCOVA, p=0.014): statistically significant treatment by day interaction
- Quality of Working Memory (Study Per-Protocol, ANCOVA, p=0.021): statistically significant treatment by day interaction
- Power of Attention, difference active vs placebo (Study Per-Protocol, any time-point): no difference between active treatment and placebo
- Continuity of Attention [2]: no general pattern of effects
- Numeric Working Memory Sensitivity Index [2]: only isolated improvements and declines in performance
- Quality of Working Memory [2]: only isolated improvements and declines in performance
- Self-Rated Calmness [2]: no differences between active treatment and placebo
- Power of Attention (post-hoc vs corresponding placebo group, 4 g, Day 42): overall benefit versus the corresponding placebo
- Self-Rated Alertness [3]: decreases in ratings
- Self-Rated Contentment [3]: decreases in ratings
- Choice Reaction Time (post-hoc vs corresponding placebo, 4 g, Day 42): superior to placebo at every time point
- Spatial Working Memory Sensitivity Index (post-hoc vs corresponding placebo, 4 g, Day 42, Study PP Population): overall benefit for ethyl-EPA 4 g over placebo
- Simple Reaction Time (post-hoc vs corresponding placebo, 4 g, PM 2 collapsed across days, several time-points on Days 14 and 42): improvements in performance
- Choice Reaction Time (post-hoc vs corresponding placebo, 4 g, all study days): overall benefit versus corresponding placebo
- Quality of Episodic Secondary Memory and contributing subtasks (post-hoc vs corresponding placebo, explained by pre-existing differences between groups): a number of decreases for ethyl-EPA
- Subtask measures of Speed of Memory (post-hoc vs corresponding placebo, mostly 1 g): some signs of improvement in performance
